In patent US9434711B2 (Janssen Pharmaceutica, NV, priority 2007, dated 2016):
Like-named read-outs stand apart in the source and are kept apart here.

Molecular target: canine TRPM8 (Canis lupus familiaris, UniProt Q1A7N1)
Assay: In Vitro Canine TRPM8 Functional Assay (Ca2+ fluorescence, icilin activation)
Type: cell-based
Settings: for inhibition at 0.2 µM: read-out: % Inh @ 0.2; for IC50: read-out: IC50; for inhibition at 0.5 µM: compound at 0.5 μM, read-out: % Inh @ 0.5
Method in brief: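 Eight-point dose-response curves, each point averaging quadruplicate wells, gave EC50 or IC50. Canine TRPM8-expressing HEK293 cells, dye-loaded (Calcium 3), were pre-exposed 5 min to compound, then challenged with icilin at roughly EC80; intracellular Ca2+ read by FLIPR or FDSS fluorescence.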

[1] = 0.2 μM compound, HEK293 cells stably expressing canine TRPM8, icilin activation
[2] = HEK293 cells stably expressing canine TRPM8, icilin activation, eight-point dose-response
[3] = canine TRPM8, icilin activation
[4] = compound at 0.2 μM, canine TRPM8, icilin activation
[5] = HEK293 cells stably expressing canine TRPM8, icilin activation, average of two or more determinations

canine TRPM8, sequence (Q1A7N1 1-1104): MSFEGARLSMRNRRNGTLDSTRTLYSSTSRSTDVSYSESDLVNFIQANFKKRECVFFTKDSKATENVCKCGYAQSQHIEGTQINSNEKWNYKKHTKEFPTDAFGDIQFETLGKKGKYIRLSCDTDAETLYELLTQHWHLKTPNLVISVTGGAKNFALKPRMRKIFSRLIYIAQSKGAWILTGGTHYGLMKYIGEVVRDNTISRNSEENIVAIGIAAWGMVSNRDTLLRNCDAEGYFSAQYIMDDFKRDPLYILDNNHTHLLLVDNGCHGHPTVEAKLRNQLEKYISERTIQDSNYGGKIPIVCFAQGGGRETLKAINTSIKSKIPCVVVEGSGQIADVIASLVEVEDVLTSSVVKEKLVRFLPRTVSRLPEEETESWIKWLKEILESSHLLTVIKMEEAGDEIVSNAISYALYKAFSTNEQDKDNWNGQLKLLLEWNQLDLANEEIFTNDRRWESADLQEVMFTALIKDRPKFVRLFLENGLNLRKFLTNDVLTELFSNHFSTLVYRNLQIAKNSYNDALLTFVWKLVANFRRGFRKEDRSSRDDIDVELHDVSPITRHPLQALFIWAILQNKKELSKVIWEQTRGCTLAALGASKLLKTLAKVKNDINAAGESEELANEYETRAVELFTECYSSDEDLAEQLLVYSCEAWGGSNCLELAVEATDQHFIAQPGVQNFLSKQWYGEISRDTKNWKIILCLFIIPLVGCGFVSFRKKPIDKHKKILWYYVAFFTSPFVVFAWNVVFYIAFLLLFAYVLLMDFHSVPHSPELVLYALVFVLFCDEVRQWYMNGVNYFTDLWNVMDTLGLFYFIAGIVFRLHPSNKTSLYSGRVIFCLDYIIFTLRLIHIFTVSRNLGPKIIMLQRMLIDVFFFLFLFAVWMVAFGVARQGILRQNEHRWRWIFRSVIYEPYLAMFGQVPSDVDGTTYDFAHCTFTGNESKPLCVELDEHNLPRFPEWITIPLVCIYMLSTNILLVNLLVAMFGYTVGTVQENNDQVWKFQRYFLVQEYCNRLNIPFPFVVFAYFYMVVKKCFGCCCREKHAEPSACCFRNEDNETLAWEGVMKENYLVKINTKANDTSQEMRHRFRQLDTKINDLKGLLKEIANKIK

SMILES | IC50 [2] [nM] | inhibition at 0.2 µM [4] [%] | further results
CCS(=O)(=O)N(Cc1ccnc(F)c1)c1sc2ccccc2c1C(C)=O [Compound 848, N-(3-Acetyl-benzo[b]thiophen-2-yl)-N-(2-fluoro-pyridin-4-ylmethyl)-ethansulfonamide] |  |  | inhibition at 0.2 µM [1]: 68%
CS(=O)(=O)CCN(c1sc2ccccc2c1Br)S(=O)(=O)c1ccccc1 [Compound 239, N-(3-Bromo-benzo[b]thiophen-2-yl)-N-(2-methanesulfonyl-ethyl)-benzenesulfonamide] | 92 |  | inhibition at 0.5 µM [3]: 96%
Cc1c(N(Cc2ccc(F)c(C(F)(F)F)c2)S(=O)(=O)c2cccnc2)sc2ccccc12 [Compound 39, N-(4-Fluoro-3-trifluoromethyl-benzyl)-N-(3-methyl-benzo[b]thiophen-2-yl)-pyridine-3-sulfonamide] | 3.9 |  | inhibition at 0.5 µM [3]: 101%
Cc1c(N(CCC(F)(F)F)S(C)(=O)=O)sc2ccccc12 [Compound 364, N-(3-Methyl-benzo[b]thiophen-2-yl)-N-(3,3,3-trifluoro-propyl)-methanesulfonamide] | 44 | 77 | 
COC(=O)c1ccc(S(=O)(=O)N(Cc2ccc(F)c(C(F)(F)F)c2)c2sc3ccccc3c2Cl)cc1 [Compound 194, N-(3-Chloro-benzo[b]thiophen-2-yl)-N-(4-fluoro-3-trifluoromethyl-benzyl)-4-carbomethoxy-benzenesulfonamide] |  | 45 | 
O=C(O)c1ccc(S(=O)(=O)N(CCCC(F)(F)F)c2sc3ccccc3c2Cl)cc1 [Compound 537, N-(3-Chloro-benzo[b]thiophen-2-yl)-N-(4,4,4-trifluoro-butyl)-4-carboxy-benzenesulfonamide] | 8.2 | 105 | 
CCCCNS(=O)(=O)N(CCCC)c1cc2ccccc2s1 [Compound 850, N-Benzo[b]thiophen-2-yl-N,N′-bis-butyl-sulfamide] |  |  | inhibition at 0.2 µM [1]: 28%
N#Cc1cccc(S(=O)(=O)N(CCC(F)(F)F)c2cc3ccccc3s2)c1 [Compound 573, N-(Benzo[b]thiophen-2-yl)-N-(3,3,3-trifluoro-propyl)-3-cyano-benzenesulfonamide] |  | 28 | 
Cc1c(N(Cc2ccc(OC(F)(F)F)cc2)S(=O)(=O)c2ccc(N(C)C)cc2)sc2ccccc12 [Compound 799, N-(3-Methyl-benzo[b]thiophen-2-yl)-N-(4-trifluoromethoxy-benzyl)-4-dimethylamino-benzenesulfonamide] |  |  | inhibition at 0.2 µM [1]: 102%; IC50 [5]: 3.9 nM
COC(=O)CCS(=O)(=O)N(CCC(F)(F)F)c1sc2ccccc2c1C [Compound 601, N-(3-Methyl-benzo[b]thiophen-2-yl)-N-(3,3,3-trifluoro-propyl)-2-carbomethoxy-ethanesulfonamide] |  | 100 | 
Cc1c(N(CC2CCCN2C(=O)OC(C)(C)C)S(=O)(=O)c2ccccc2)sc2ccccc12 (centres unmarked) [Compound 103, N-(3-Methyl-benzo[b]thiophen-2-yl)-N-{[1-(carbo-tert-butoxy)pyrrolidin-2-yl]-methyl}-benzenesulfonamide] | 90.8 | 80 | 
CCCCN(c1cc2ccccc2s1)S(=O)(=O)c1ccc(C(N)=NO)cc1 [Compound 471, N-(Benzo[b]thiophen-2-yl)-N-(butyl)-4-N-hydroxy-benzamidinesulfonamide] | 59 |  | % Inh @ 0.2 (μM) [4]: 97%
CCS(=O)(=O)N(Cc1ccc(F)c(F)c1)c1sc2ccccc2c1CO [Compound 219, N-(3,4-Difluoro-benzyl)-N-(3-hydroxymethyl-benzo[b]thiophen-2-yl)-ethanesulfonamide] | 7.8 | 101 | 
Cc1c(N(Cc2ccc(F)c(C(F)(F)F)c2)S(=O)(=O)c2cccc(-c3nnn[nH]3)c2)sc2ccccc12 [Compound 455, N-(3-Methyl-benzo[b]thiophen-2-yl)-N-(4-fluoro-3-trifluoromethyl-benzyl)-3-(1H-tetrazol-5-yl)-benzenesulfonamide] | 36 | 101 | 
COC(=O)c1ccc(CN(c2cc3ccccc3s2)S(=O)(=O)c2cccnc2)cc1 [Compound 380, N-(Benzo[b]thiophen-2-yl)-N-(4-carbomethoxy-benzyl)-pyridin-3-ylsulfonamide] |  | 24 | 
Cc1c(N(Cc2ccc(OC(F)(F)F)cc2)S(=O)(=O)c2ccc(-c3nnn[nH]3)nc2)sc2ccccc12 [Compound 805] |  |  | inhibition at 0.2 µM [1]: 103%; IC50 [5]: 2.2 nM
O=S(=O)(c1ccc(Br)cc1)N(CCC1CC1)c1cc2ccccc2s1 [Compound 654, N-(Benzo[b]thiophen-2-yl)-N-(2-cyclopropyl-ethyl)-4-bromo-benzenesulfonamide] |  | 56 | 
Cc1ccccc1CN(c1sc2ccccc2c1Br)S(=O)(=O)c1ccccc1 [Compound 178, N-(3-Bromo-benzo[b]thiophen-2-yl)-N-(2-methyl-benzyl)-benzenesulfonamide] | 35.5 |  | inhibition at 0.5 µM [3]: 96%
O=S(=O)(c1cccnc1)N(Cc1ccc(F)c(C(F)(F)F)c1)c1sc2ccccc2c1Cl [Compound 189, N-(3-Chloro-benzo[b]thiophen-2-yl)-N-(4-fluoro-3-trifluoromethyl-benzyl)-pyridin-3-yl-sulfonamide] | 11.6 | 100 | 
Cc1c(N(Cc2ccc(F)c(F)c2)S(=O)(=O)c2ccccc2F)sc2ccccc12 [Compound 128, N-(3,4-Difluoro-benzyl)-N-(3-methyl-benzo[b]thiophen-2-yl)-2-fluoro-benzenesulfonamide] | 9 |  | inhibition at 0.5 µM [3]: 99%
Cc1nnc(-c2cccc(S(=O)(=O)N(Cc3ccc(F)c(C(F)(F)F)c3)c3sc4ccccc4c3C)c2)o1 [Compound 333, N-(3-Methyl-benzo[b]thiophen-2-yl)-N-(4-fluoro-3-trifluoromethyl-benzyl)-3-(5-methyl-[1,3,4]oxadiazol-2-yl)-benzenesulfonamide] | 9 | 101 | 
CN(C)C(=O)c1c(N(Cc2ccc(F)c(C(F)(F)F)c2)S(=O)(=O)c2ccccc2)sc2ccccc12 [Compound 457, N-(3-Dimethyl-carbamoyl-benzo[b]thiophen-2-yl)-N-(4-fluoro-3-trifluoromethyl-benzyl)-benzenesulfonamide] | 47 |  | % Inh @ 0.2 (μM) [4]: 93%
CC1=C(N(CCCCC(F)(F)F)S(=O)(=O)c2ccccc2)S(=O)(=O)c2ccccc21 [Compound 621, N-(3-Methyl-1,1-dioxo-benzo[b]thiophen-2-yl)-N-(5,5,5-trifluoro-pentyl)-benzenesulfonamide] | 11 | 101 | 
CCS(=O)(=O)N(CCOC(C)(C)C)c1sc2ccccc2c1Br [Compound 264, N-(3-Bromo-benzo[b]thiophen-2-yl)-N-(2-tert-butoxy-ethyl)-ethanesulfonamide] | 34.1 | 99 | 

Second part, led by results:

IC50 [2] [nM] | inhibition at 0.2 µM [4] [%] | SMILES | further results
9.7 | 102 | CC(C)(O)c1c(N(Cc2ccc(F)cc2)S(=O)(=O)c2ccc(Br)cc2)sc2ccccc12 [Compound 734, N-(4-Fluorobenzyl)-N-(3-(1-hydroxy-1-methyl-ethyl)-benzo[b]thiophen-2-yl)-4-bromo-benzenesulfonamide] | 
11.9 | 102 | O=C(O)c1ccc(S(=O)(=O)N(CCCCC(F)(F)F)c2cc3ccccc3s2)c(F)c1 [Compound 685, N-(Benzo[b]thiophen-2-yl)-N-(5,5,5-trifluoro-pentyl)-2-fluoro-4-carboxy-benzenesulfonamide] | 
53.7 | 98 | CC(C)(O)c1c(N(CCCCC(F)(F)F)S(=O)(=O)c2ccc(Br)cc2)sc2ccccc12 [Compound 656, 4-Bromo-N-(3-(1-hydroxy-1-methyl-ethyl)-benzo[b]thiophen-2-yl)-N-(5,5,5-trifluoro-pentyl)-benzenesulfonamide] | 
23 | 97 | COC(=O)c1ccc(S(=O)(=O)N(Cc2ccc(F)c(C(F)(F)F)c2)c2sc3ccccc3c2C2CCC2)cc1 [Compound 696, N-(3-Cyclobutyl-benzo[b]thiophen-2-yl)-N-(4-fluoro-3-trifluoromethyl-benzyl)-4-carbomethoxy-benzenesulfonamide] | 
18 | 102 | Cc1c(N(Cc2ccc(F)c(C(F)(F)F)c2)S(=O)(=O)c2cccc3nccnc23)sc2ccccc12 [Compound 723, N-(3-Methyl-benzo[b]thiophen-2-yl)-N-(4-fluoro-3-trifluoromethyl-benzyl)-quinoxalin-5-yl-sulfonamide] | 
45.9 | 94 | COC(=O)CCS(=O)(=O)N(Cc1cccc(OC(F)(F)F)c1)c1sc2ccccc2c1C [Compound 760, N-(3-Methyl-benzo[b]thiophen-2-yl)-N-(3-trifluoromethoxy-benzyl)-2-carbomethoxy-ethanesulfonamide] | 
44.4 | 87 | CC(=O)c1c(N(Cc2ccc(OC(F)(F)F)cc2)S(=O)(=O)c2ccc(Br)cc2)sc2ccccc12 [Compound 731, N-(3-Acetyl-benzo[b]thiophen-2-yl)-4-bromo-N-(4-(trifluoromethoxy)-benzyl)benzenesulfonamide] | 
51.2 | 96.4 | Cc1c(N(Cc2ccc(F)c(C(F)(F)F)c2)S(=O)(=O)CC(F)(F)F)sc2ccccc12 [Compound 669, N-(4-Fluoro-3-trifluoromethyl-benzyl)-N-(3-methyl-benzo[b]thiophen-2-yl)-2,2,2-trifluoro-ethanesulfonamide] | 
16.1 | 101 | CNc1ccc(S(=O)(=O)N(CCC2CC2)c2sc3ccccc3c2Cl)cc1 [Compound 690, N-(3-Chloro-benzo[b]thiophen-2-yl)-N-(2-cyclopropyl-ethyl)-4-methylamino-benzenesulfonamide] | 
